# Measured values from ChEMBL document CHEMBL5291721, “A preclinical secondary pharmacology resource illuminates target-adverse drug reaction associations of marketed drugs” (Nat Commun, 2023).
# Several values for one entry are separate records, joined by “and”; a condition that tells them apart may be missing. Identical values can stand only once.
# Key:
# Androgen receptor = biological target: T1, Androgen receptor (Rattus norvegicus, UniProt P15207); type: functional
# T1 sequence (P15207 whole entry): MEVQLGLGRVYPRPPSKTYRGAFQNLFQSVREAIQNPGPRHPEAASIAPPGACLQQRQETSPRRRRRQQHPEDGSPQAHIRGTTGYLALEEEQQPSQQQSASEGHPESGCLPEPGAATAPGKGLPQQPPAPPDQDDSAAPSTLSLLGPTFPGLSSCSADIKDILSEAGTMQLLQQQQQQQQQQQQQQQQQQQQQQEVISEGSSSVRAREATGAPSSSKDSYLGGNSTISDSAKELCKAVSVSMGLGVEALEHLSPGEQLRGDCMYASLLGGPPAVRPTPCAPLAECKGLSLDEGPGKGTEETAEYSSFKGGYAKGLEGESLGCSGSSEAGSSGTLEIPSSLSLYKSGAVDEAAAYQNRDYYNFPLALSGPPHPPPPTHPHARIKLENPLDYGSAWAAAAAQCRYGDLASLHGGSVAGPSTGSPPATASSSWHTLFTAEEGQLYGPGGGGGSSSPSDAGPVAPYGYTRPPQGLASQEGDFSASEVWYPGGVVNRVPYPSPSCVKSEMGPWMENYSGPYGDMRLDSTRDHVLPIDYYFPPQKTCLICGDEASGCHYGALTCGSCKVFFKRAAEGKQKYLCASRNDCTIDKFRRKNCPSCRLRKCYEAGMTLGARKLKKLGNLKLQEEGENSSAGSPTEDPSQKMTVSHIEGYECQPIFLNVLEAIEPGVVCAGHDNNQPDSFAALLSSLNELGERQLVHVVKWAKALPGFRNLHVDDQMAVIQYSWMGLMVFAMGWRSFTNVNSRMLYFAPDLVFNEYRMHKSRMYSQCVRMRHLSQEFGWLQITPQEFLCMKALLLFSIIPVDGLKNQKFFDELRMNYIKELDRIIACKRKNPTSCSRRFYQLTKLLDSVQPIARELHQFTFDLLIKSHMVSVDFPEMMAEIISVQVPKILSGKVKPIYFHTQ
# [1] = biological target: Beta-2 adrenergic receptor (Homo sapiens, UniProt P07550); type: functional, cell-based
# [2] = biological target: T2, Alpha-1A adrenergic receptor (Homo sapiens, UniProt P35348)
# T2 sequence (P35348 whole entry): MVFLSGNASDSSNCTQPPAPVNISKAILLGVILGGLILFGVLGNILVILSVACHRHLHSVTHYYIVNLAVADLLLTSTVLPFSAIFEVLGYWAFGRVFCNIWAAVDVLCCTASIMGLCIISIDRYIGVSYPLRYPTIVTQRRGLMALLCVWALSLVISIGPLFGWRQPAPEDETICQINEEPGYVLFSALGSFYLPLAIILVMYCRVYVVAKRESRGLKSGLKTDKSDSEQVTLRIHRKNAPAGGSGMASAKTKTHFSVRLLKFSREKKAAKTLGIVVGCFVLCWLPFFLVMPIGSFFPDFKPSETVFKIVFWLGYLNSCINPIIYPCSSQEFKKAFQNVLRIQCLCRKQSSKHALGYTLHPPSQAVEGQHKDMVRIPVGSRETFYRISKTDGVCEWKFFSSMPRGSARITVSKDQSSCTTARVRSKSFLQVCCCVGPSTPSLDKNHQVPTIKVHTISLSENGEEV
# Cannabinoid receptor 1 = Cannabinoid receptor 1 (Homo sapiens, UniProt P21554)
# Chain of Cannabinoid receptor 1 (P21554 whole entry): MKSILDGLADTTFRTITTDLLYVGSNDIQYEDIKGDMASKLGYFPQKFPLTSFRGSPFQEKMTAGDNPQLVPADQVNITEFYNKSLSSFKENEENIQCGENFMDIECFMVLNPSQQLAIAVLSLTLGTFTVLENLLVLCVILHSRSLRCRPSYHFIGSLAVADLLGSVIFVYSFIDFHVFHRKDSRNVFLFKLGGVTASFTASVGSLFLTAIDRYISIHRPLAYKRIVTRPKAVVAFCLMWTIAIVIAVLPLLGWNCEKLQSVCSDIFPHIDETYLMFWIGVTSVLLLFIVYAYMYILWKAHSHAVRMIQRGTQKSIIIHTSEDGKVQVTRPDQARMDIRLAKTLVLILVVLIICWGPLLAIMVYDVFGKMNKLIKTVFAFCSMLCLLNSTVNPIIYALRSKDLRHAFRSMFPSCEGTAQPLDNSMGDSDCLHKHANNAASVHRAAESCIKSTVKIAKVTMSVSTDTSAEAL
# Melanocortin receptor 4 = Melanocortin receptor 4 (Homo sapiens, UniProt P32245)
# Chain of Melanocortin receptor 4 (P32245 whole entry): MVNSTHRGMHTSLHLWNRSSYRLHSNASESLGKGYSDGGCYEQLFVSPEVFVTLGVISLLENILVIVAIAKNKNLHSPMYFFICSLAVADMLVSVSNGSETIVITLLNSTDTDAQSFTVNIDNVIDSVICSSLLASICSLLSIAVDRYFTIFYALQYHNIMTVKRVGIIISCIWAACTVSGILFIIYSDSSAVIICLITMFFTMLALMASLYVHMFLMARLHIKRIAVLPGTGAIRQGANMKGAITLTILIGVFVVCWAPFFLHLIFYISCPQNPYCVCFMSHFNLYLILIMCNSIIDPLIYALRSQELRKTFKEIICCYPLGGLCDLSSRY
# [3] = biological target: T3, 5-hydroxytryptamine receptor 1A (Homo sapiens, UniProt P08908)
# T3 sequence (P08908 whole entry): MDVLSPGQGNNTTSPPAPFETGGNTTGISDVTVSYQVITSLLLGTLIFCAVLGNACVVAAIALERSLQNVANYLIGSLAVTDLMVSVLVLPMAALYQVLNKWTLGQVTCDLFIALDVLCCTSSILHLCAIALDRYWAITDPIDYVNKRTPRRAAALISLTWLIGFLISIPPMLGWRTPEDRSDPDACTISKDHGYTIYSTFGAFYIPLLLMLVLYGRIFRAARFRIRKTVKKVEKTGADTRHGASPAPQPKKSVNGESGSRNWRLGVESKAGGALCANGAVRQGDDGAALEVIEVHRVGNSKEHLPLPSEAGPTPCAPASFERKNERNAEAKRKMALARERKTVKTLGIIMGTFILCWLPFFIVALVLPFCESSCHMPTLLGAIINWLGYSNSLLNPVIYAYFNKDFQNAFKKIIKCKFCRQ
# [4] = biological target: T4, Alpha-2A adrenergic receptor (Homo sapiens, UniProt P08913)
# T4 sequence (P08913 whole entry): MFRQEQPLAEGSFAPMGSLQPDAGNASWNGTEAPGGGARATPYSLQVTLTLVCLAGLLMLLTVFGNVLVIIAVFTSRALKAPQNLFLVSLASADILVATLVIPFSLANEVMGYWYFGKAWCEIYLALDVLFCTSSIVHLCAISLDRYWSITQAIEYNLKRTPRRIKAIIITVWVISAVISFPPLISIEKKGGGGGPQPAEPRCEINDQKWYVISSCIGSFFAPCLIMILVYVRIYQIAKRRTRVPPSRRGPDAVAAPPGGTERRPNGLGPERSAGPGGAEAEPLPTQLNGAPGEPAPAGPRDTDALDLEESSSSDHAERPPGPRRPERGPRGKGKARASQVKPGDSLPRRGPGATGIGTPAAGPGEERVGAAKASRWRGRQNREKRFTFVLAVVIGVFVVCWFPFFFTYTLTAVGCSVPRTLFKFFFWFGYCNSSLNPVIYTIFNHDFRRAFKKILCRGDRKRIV
# Also: assay procedure not described here.
Compound,AC50 (Androgen receptor),AC50 [1],AC50 [2],AC50 (Cannabinoid receptor 1),AC50 (Melanocortin receptor 4),also measured
N#Cc1ccccc1-c1cc(-c2ccccn2)cn(-c2ccccc2)c1=O,> 30 µM,> 30 µM,,,,
N=C(N)NCCCCCCC(=O)NC(O)C(=O)NCCCCNCCCN (stereo not drawn),,> 30 µM,,,,
COc1ccc(/C=C/C(=O)Nc2ccccc2C(=O)O)cc1OC,> 30 µM,,18 µM,> 30 µM,,
C=C[C@@]1(C)CC(=O)[C@]2(O)[C@@]3(C)[C@@H](O)CCC(C)(C)[C@@H]3[C@H](OC(=O)CCN(C)C)[C@H](OC(C)=O)[C@@]2(C)O1,> 30 µM,,,,,
Nc1ccc(C(=O)O)c(O)c1 [AMINOSALICYLIC ACID],> 30 µM,> 30 µM,,,,
CC(=O)OCC(=O)[C@@]1(O)CC[C@H]2[C@@H]3CCC4=CC(=O)CC[C@]4(C)C3=CC[C@@]21C [ANECORTAVE ACETATE],,,> 10 µM,> 10 µM,> 10 µM,
NS(=O)(=O)c1cc2c(cc1C(F)(F)F)NC(Cc1ccccc1)NS2(=O)=O (stereo not drawn) [BENDROFLUMETHIAZIDE],,,> 10 µM,> 10 µM,> 10 µM,
O=C(CCCN1CCC(n2c(O)nc3ccccc32)CC1)c1ccc(F)cc1 [BENPERIDOL],7.1 µM,> 30 µM,,,,
COc1cc(OC)c(C(=O)CCCN2CCCC2)c(OC)c1 [BUFLOMEDIL],> 30 µM,,,,,
CCCCCCNC(=O)n1cc(F)c(=O)[nH]c1=O [CARMOFUR],,,> 30 µM,> 30 µM,,
COCCOC(=O)C1=C(C)NC(C)=C(C(=O)OC/C=C/c2ccccc2)C1c1cccc([N+](=O)[O-])c1 (stereo not drawn) [CILNIDIPINE],,> 30 µM,,,,
CC(C)(C)NCC(O)c1cc(Cl)c(N)c(Cl)c1 (stereo not drawn) [CLENBUTEROL],> 30 µM,,13 µM,> 30 µM,> 30 µM,
CCC(C)(Oc1ccc(C2(c3ccc(OC(C)(CC)C(=O)O)cc3)CCCCC2)cc1)C(=O)O (stereo not drawn) [CLINOFIBRATE],> 30 µM,,,,,
C[C@@H]1C[C@H]2[C@@H]3C[C@H](F)C4=CC(=O)C=C[C@]4(C)[C@@]3(F)[C@@H](O)C[C@]2(C)[C@H]1C(=O)CO [DIFLUCORTOLONE],2.6 µM,,,,,
CCCCC[C@H](O)/C=C/[C@H]1[C@H](O)CC(=O)[C@@H]1C/C=C\CCCC(=O)O [DINOPROSTONE],> 30 µM,,,,,
COC(=O)N[C@@H](C)CNc1nccc(-c2cn(C(C)C)nc2-c2cc(Cl)cc(NS(C)(=O)=O)c2F)n1 [ENCORAFENIB],> 30 µM,,> 30 µM,> 30 µM,> 30 µM,
Clc1ccc2c(c1)C(c1ccccc1)=NCc1nncn1-2 [ESTAZOLAM],,,> 10 µM,,> 30 µM,AC50 [3]: > 10 µM
CCCN(CC)C(CC)C(=O)Nc1c(C)cccc1C (stereo not drawn) [ETIDOCAINE],,,,,,AC50 [3]: > 30 µM
Clc1ccc(C(Cn2ccnc2)OCc2ccc(Sc3ccccc3)cc2)c(Cl)c1 (stereo not drawn) [FENTICONAZOLE],,,,11 µM,,
Nc1nc(F)nc2c1ncn2[C@@H]1O[C@H](COP(=O)(O)O)[C@@H](O)[C@@H]1O [FLUDARABINE PHOSPHATE],,,,> 30 µM,> 30 µM,
O=C(O)c1ccccc1Nc1cccc(C(F)(F)F)c1 [FLUFENAMIC ACID],,> 30 µM,1 µM,> 10 µM,> 30 µM,AC50 [3]: > 10 µM
Nc1ccn([C@@H]2O[C@H](CO)[C@@H](O)C2(F)F)c(=O)n1 [GEMCITABINE],,,> 10 µM,,> 30 µM,AC50 [3]: > 10 µM

Compound,AC50 (Androgen receptor),AC50 [1],AC50 [2],AC50 (Cannabinoid receptor 1),AC50 (Melanocortin receptor 4),also measured
C#C[C@]1(O)CC[C@H]2[C@@H]3CCC4=CC(=O)CCC4=C3C=C[C@@]21CC [GESTRINONE],,> 30 µM,,,,
CCCCCCOC(=O)CCC(=O)CN [HEXAMINOLEVULINATE],> 30 µM,> 30 µM,,,,
CC1(C)C(/C=C/C=C/C=C/C=C2\N(CCCCS(=O)(=O)O)c3ccc4ccccc4c3C2(C)C)=[N+](CCCCS(=O)(=O)[O-])c2ccc3ccccc3c21 [INDOCYANINE GREEN ACID FORM],> 30 µM,> 30 µM,,,,
CC(C)OC(=O)C(C(=O)OC(C)C)=C1SC=CS1 [MALOTILATE],> 30 µM,,,,,
CC(=O)Nc1c(I)c(C(=O)N[C@H]2C(O)O[C@H](CO)[C@@H](O)[C@@H]2O)c(I)c(N(C)C(C)=O)c1I (stereo partly drawn) [METRIZAMIDE],,,> 10 µM,> 10 µM,> 10 µM,
CC(=O)O[C@H]1C[C@@H]2CC[C@@H]3[C@H](CC[C@@]4(C)[C@H]3C[C@H]([N+]3(C)CCCCC3)[C@@H]4OC(C)=O)[C@@]2(C)C[C@@H]1[N+]1(C)CCCCC1 [PANCURONIUM],,,> 10 µM,> 10 µM,> 10 µM,
CC1(C)C(C=C(Cl)Cl)C1C(=O)OCc1cccc(Oc2ccccc2)c1 (stereo not drawn) [PERMETHRIN],,,> 10 µM,18.2 µM,> 10 µM,AC50 [4]: > 10 µM
CC(=O)c1ccc2c(c1)N(CCCN1CCC(CCO)CC1)c1ccccc1S2 [PIPERACETAZINE],,,0.18 µM,,,AC50 [3]: 0.0421 µM
C[n+]1ccccc1/C=N/O [PRALIDOXIME],,> 30 µM,,,,
NC(=O)CCC/N=C(\c1ccc(Cl)cc1)c1cc(F)ccc1O [PROGABIDE],,> 30 µM,> 10 µM,> 10 µM,> 10 µM,
CCN(CC)CC(=O)Oc1ccc(NC(C)=O)cc1 [PROPACETAMOL],> 30 µM,,,,,
Cc1ccc2c(-c3ccccc3)nc(=O)n(C(C)C)c2c1 [PROQUAZONE],15 µM,> 30 µM,,,,
Cc1cc2nc3c(=O)[nH]c(=O)nc-3n(C[C@H](O)[C@H](O)[C@H](O)COP(=O)(O)O)c2cc1C [RIBOFLAVIN 5'-PHOSPHATE],> 30 µM,2.9 µM,,,,
CC(NCCc1ccc(O)cc1)C(O)c1ccc(O)cc1 (stereo not drawn) [RITODRINE],,,10 µM and 1.54 µM,> 30 µM,> 10 µM,
CN1CCN(c2c(F)cc3c(=O)c(C(=O)O)cn4c3c2SCC4)CC1 [RUFLOXACIN],,> 30 µM,,,,
COc1c(O[C@@H]2O[C@H](CO)[C@@H](O)[C@H](O)[C@H]2O)cc2c(c1OC)-c1ccc(SC)c(=O)cc1[C@@H](NC(C)=O)CC2 [THIOCOLCHICOSIDE],,> 30 µM,,,,
CN1c2ccccc2C(NCCCCCCC(=O)O)c2ccc(Cl)cc2S1(=O)=O (stereo not drawn) [TIANEPTINE],,> 30 µM,,,,
Cc1cccc(N(C)C(=S)Oc2ccc3ccccc3c2)c1 [TOLNAFTATE],,,> 30 µM,> 10 µM,> 10 µM,
COc1ccc(C(CN(C)C)C2(O)CCCCC2)cc1 (stereo not drawn) [VENLAFAXINE],,> 30 µM,,5.5 µM,> 30 µM,AC50 [3]: > 10 µM; AC50 [4]: > 10 µM
C=CC(N)CCC(=O)O (stereo not drawn) [VIGABATRIN],,,> 10 µM,> 10 µM,> 10 µM,
COLISTIN,,> 30 µM,,,,
